# Laboratory results reported in patent US12492188B2, “1H-benzo[D]imidazole derivatives as TLR9 inhibitors for the treatment of fibrosis” (BRISTOL-MYERS SQUIBB COMPANY, priority 2020, dated 2025).
# Read-outs that look alike come from different tables or passages of the source.
# Key:
# Format in all cases: cell-based
# [1] = target: T1, human TLR9 (Homo sapiens, UniProt Q9NR96); experiment: TLR9 inhibition reporter assay (HEK-Blue cells, secreted embryonic alkaline phosphatase reporter)
# T1 construct: host or cells: HEK-Blue cells (HEK293-derived reporter line)
# T1 sequence (Q9NR96 26-1032): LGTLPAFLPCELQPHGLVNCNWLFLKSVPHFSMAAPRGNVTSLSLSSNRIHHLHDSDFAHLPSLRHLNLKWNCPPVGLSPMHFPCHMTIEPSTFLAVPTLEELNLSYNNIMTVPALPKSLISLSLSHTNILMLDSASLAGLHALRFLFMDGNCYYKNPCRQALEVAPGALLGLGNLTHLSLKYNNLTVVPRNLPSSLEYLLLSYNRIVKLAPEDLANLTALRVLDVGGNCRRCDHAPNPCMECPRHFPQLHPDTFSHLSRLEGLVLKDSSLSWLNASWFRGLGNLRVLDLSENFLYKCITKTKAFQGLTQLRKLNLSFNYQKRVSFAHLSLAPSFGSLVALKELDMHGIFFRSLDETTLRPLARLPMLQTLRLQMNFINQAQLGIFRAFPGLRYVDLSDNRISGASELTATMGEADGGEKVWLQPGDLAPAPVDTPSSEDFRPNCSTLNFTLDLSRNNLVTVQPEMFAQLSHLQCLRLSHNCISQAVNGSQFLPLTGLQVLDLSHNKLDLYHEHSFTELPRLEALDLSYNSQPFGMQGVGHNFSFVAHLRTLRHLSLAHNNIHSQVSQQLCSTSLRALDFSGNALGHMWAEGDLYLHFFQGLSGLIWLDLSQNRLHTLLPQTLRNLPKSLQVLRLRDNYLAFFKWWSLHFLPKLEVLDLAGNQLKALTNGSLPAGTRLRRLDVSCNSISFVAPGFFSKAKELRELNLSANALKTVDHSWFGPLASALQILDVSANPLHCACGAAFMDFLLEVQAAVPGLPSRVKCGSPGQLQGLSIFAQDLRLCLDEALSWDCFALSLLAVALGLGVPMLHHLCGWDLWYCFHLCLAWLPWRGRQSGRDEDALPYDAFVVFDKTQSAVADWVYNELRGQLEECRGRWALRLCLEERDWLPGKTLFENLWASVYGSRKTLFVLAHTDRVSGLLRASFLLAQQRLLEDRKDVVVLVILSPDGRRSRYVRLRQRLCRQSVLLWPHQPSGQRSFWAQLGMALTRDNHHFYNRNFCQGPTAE
# Method in brief: (§1)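 Agonist-driven SEAP output was measured in HEK-Blue reporter cells carrying human TLR7 (gardiquimod 7.5 μM), TLR8 (R848 15.9 μM) or TLR9 (ODN2006 5 nM). Compounds at 0.05 nM–50 μM final were added 30 min before stimulation at room temperature. After 22 h at 37 °C, percent inhibition was taken against agonist/DMSO wells and a reference inhibitor.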
# [2] = target: T2, human TLR8 (Homo sapiens, UniProt Q9NR97); experiment: TLR8 inhibition reporter assay (HEK-Blue cells, secreted embryonic alkaline phosphatase reporter); conditions: HEK-Blue cells overexpressing human TLR8, stimulated with R848 15.9 μM; read-out: TLR 8 IC50
# T2 construct: host or cells: HEK-Blue cells (HEK293-derived reporter line)
# T2 sequence (Q9NR97 27-1041): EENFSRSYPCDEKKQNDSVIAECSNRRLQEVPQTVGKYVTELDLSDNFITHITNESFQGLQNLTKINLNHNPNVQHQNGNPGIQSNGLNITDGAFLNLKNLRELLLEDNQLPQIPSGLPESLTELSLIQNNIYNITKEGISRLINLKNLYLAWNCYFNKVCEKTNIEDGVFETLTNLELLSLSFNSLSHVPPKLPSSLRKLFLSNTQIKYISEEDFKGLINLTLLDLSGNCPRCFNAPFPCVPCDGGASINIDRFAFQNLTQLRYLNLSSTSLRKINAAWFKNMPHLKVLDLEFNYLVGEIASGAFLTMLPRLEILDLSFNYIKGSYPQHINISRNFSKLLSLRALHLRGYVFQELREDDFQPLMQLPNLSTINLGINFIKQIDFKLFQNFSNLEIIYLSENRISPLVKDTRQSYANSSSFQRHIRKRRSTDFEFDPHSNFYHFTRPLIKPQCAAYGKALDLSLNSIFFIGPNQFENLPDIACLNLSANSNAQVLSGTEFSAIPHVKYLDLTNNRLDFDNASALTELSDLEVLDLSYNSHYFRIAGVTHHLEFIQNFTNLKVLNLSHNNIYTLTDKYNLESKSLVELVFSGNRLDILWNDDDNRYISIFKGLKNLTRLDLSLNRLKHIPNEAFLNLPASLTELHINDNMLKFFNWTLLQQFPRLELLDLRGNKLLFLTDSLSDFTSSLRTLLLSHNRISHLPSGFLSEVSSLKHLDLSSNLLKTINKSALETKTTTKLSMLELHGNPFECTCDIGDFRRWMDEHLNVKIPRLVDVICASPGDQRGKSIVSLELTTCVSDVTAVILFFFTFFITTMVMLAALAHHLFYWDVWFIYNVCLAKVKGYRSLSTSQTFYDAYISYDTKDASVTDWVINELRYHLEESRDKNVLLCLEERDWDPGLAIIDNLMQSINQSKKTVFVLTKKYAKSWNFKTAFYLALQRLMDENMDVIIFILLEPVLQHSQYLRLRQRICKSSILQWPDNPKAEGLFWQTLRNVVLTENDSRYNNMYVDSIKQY
# Method in brief: as §1
# [3] = target: T3, human TLR7 (Homo sapiens, UniProt Q9NYK1); experiment: TLR7 inhibition reporter assay (HEK-Blue cells, secreted embryonic alkaline phosphatase reporter); conditions: HEK-Blue cells overexpressing human TLR7, stimulated with gardiquimod 7.5 μM; read-out: TLR 7 IC50
# T3 construct: host or cells: HEK-Blue cells (HEK293-derived reporter line)
# T3 sequence (Q9NYK1 27-1049): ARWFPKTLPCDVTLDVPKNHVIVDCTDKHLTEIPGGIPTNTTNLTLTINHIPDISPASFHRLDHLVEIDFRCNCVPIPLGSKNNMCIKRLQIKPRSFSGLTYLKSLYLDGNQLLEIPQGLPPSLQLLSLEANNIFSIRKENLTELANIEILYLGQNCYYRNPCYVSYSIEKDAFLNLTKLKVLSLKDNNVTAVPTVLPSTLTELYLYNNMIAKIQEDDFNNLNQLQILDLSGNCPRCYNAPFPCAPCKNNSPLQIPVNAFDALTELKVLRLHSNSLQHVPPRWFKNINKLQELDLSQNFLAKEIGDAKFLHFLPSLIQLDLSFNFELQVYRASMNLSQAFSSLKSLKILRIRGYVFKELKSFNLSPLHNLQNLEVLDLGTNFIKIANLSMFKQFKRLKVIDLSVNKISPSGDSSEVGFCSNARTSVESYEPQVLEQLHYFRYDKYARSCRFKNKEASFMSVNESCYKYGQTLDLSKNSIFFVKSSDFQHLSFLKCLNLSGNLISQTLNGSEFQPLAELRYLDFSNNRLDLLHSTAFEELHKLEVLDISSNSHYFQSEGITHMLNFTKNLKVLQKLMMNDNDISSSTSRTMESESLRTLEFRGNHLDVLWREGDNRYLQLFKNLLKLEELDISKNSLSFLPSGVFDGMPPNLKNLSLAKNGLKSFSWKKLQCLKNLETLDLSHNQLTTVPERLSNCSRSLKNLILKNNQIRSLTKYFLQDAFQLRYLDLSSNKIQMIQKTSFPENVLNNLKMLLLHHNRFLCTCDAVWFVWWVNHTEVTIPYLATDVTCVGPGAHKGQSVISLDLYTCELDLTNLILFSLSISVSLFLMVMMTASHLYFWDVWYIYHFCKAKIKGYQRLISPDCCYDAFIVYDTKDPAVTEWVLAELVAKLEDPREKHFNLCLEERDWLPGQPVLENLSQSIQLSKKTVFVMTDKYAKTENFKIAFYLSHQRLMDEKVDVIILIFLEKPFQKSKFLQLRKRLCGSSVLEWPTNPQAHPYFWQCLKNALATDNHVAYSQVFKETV
# Method in brief: as §1
# [4] = HEK-Blue cells overexpressing human TLR9, stimulated with ODN2006 5 nM, read-out: TLR 9 IC50
# [5] = HEK-Blue cells overexpressing human TLR9, stimulated with ODN2006 5 nM, 22 hour incubation, reporter readout
SMILES,IC50 [1] [nM],"IC50 [1, 4] [nM]",IC50 [2] [nM],IC50 [3] [nM],"IC50 [1, 5] [nM]",IC50 ([1]; HEK-Blue human TLR9 reporter cells) [nM]
"CS(=O)(=O)c1ccc(-c2nc3ccc(C4CCN(C5CCN(C6CCOCC6)CC5)CC4)c(F)c3[nH]2)cc1 [Example 182, 7-fluoro-2-(4-(methylsulfonyl)phenyl)-6-(1′-(tetrahydro-2H-pyran-4-yl)-[1,4′-bipiperidin]-4-yl)-1H-benzo[d]imidazole]",320,316,> 50000,> 50000,–,–
"COc1ccc(-c2nc3cc(C4CCN(C5CCN(CC(C)C)CC5)CC4)ccc3n2CC(F)F)cc1OC [Example 38, 1-(2,2-difluoroethyl)-2-(3,4-dimethoxyphenyl)-5-(1′-isobutyl-[1,4′-bipiperidin]-4-yl)-1H-benzo[d]imidazole]",–,208,> 50000,3400,210,–
"COc1ccc(-c2nc3ccc(C4CCN(C5CCN(C6CC6)CC5)CC4)cc3n2C(C)C)cc1OC [Example 31, 6-(1′-cyclopropyl-[1,4′-bipiperidin]-4-yl)-2-(3,4-dimethoxyphenyl)-1-isopropyl-1H-benzo[d]imidazole]",–,749,> 50000,> 50000,750,–
"COc1cc(-c2nc3c(C)cc(C4CCN(C5CCN(C(C)C)CC5)CC4)cc3n2C)cn2ncnc12 [Example 125, 6-(6-(1′-isopropyl-[1,4′-bipiperidin]-4-yl)-1,4-dimethyl-1H-benzo[d]imidazol-2-yl)-8-methoxy-[1,2,4]triazolo[1,5-a]pyridine]",–,–,2100,600,28,–
"Cc1cc(-c2ccc(CN3C[C@H]4CN(C)C[C@H]4C3)c(F)c2)cc2c1nc(-c1ccc(S(C)(=O)=O)cc1)n2C [Example 388, 6-(3-fluoro-4-((cis-5-methylhexahydropyrrolo[3,4-c]pyrrol-2(1H)-yl)methyl)phenyl)-1,4-dimethyl-2-(4-(methylsulfonyl)phenyl)-1H-benzo[d]imidazole]",–,227,3200,400,230,–
"COc1ccc(-c2nc3ccc(C4CCN(C5CCN(C6CC6)CC5)CC4)cc3n2CC(F)F)cc1OC [Example 33, 6-(1′-cyclopropyl-[1,4′-bipiperidin]-4-yl)-1-(2,2-difluoroethyl)-2-(3,4-dimethoxyphenyl)-1H-benzo[d]imidazole]",–,681,35000,8100,680,–

# The next lines start with the values.
IC50 [1] [nM],"IC50 [1, 4] [nM]",IC50 [2] [nM],IC50 [3] [nM],"IC50 [1, 5] [nM]",IC50 ([1]; HEK-Blue human TLR9 reporter cells) [nM],SMILES
1000,1040,> 50000,7600,–,–,"COCCN1CCC(N2CCC(c3ccc4nc(-c5ccc(S(C)(=O)=O)cc5)n(C)c4c3F)CC2)CC1 [Example 265, 7-fluoro-6-(1′-(2-methoxyethyl)-[1,4′-bipiperidin]-4-yl)-1-methyl-2-(4-(methylsulfonyl)phenyl)-1H-benzo[d]imidazole]"
–,509,> 50000,> 50000,510,–,"COc1ccc(-c2nc3c(C)cc(C4CCN(C5CCN(C(=O)C(C)C)CC5)CC4)cc3[nH]2)cc1OC [Example 14, 1-(4-(2-(3,4-dimethoxyphenyl)-4-methyl-1H-benzo[d]imidazol-6-yl)-[1,4′-bipiperidin]-1′-yl)-2-methylpropan-1-one]"
350,354,> 50000,7800,–,–,"CC(C)CN1CCC(N2CCC(c3cc4c(cc3F)nc(-c3ccc(S(C)(=O)=O)cc3)n4C)CC2)CC1 [Example 221, 5-fluoro-6-(1′-isobutyl-[1,4′-bipiperidin]-4-yl)-1-methyl-2-(4-(methylsulfonyl)phenyl)-1H-benzo[d]imidazole]"
–,20,> 50000,2900,–,20,"Cn1c(-c2ccc(S(C)(=O)=O)cc2)nc2c(F)cc(C3CCN(C4CCCN(C5CCOCC5)CC4)CC3)cc21 (centres unmarked) [Example 300, 4-fluoro-1-methyl-2-(4-(methylsulfonyl)phenyl)-6-(1-(1-(tetrahydro-2H-pyran-4-yl)azepan-4-yl)piperidin-4-yl)-1H-benzo[d]imidazole]"
–,47,> 50000,3100,47,–,"Cc1cc(C2CCN(C3CCN(CC(C)C)CC3)CC2)cc2[nH]c(-c3ccc(S(C)(=O)=O)cc3)nc12 [Example 58, 6-(1′-isobutyl-[1,4′-bipiperidin]-4-yl)-4-methyl-2-(4-(methylsulfonyl)phenyl)-1H-benzo[d]imidazole tris(2,2,2-trifluoroacetate)]"
840,840,> 50000,> 50000,–,–,"Cn1c(-c2ccc(S(C)(=O)=O)cc2)nc2cc(C3CCN(C4CCN(C5COC5)CC4)CC3)cc(F)c21 [Example 206, 7-fluoro-1-methyl-2-(4-(methylsulfonyl)phenyl)-5-(1′-(oxetan-3-yl)-[1,4′-bipiperidin]-4-yl)-1H-benzo[d]imidazole]"
